Literature values in patent publication US20080014156A1, “PHOTOPROTECTANT COMPOSITION FOR PREVENTING SUNBURN AND SUN DAMAGE TO THE SKIN” (priority 2006, published 2008).

Details: relative to vitamin E

CC1=C(/C=C/C(C)=C/C=C/C(C)=C/C=C/C=C(C)/C=C/C=C(C)/C=C/C2=C(C)C(=O)[C@@H](O)CC2(C)C)C(C)(C)C[C@H](O)C1=O [Astaxanthin]
antioxidant effectiveness compared with vitamin E: up to 550 times
